One assay concerns hMSCs in pellet culture. Description: Induction of hypertrophy in hMSC pellet culture by sequential treatment with two media. The assay is classed as cell-based, human. To be noted: for inducing hypertrophy: other preliminary experiments.
The subject of assay [1] is human mesenchymal stem cells (hMSCs). Description: hMSC pellet culture in chondrogenic medium with low or high sugar concentration (pellet size, type II collagen immunostaining, toluidine blue). It counts as cell-based. The note with it: low-glucose medium supplemented with 3.5 g/l fructose; compared with high-glucose medium (4.5 g/l glucose). The protocol: The hMSCs in pellet culture that are undergoing chondrogenic differentiation express the extracellular matrix proteoglycans mentioned above. […] In FIG. 1, the increase in the size of the cell pellet is evident when the medium contains “high glucose”. Changes in the size of hMSC pellets reflect the extent of synthesis of extracellular matrix components. Each pellet was formed by transferring an aliquot of 200,000 cells into ½ ml chondrogenic medium with 1 g/l (5.5 mM) glucose (left) or 4.5 g/l (25 mM) glucose ( right). The chondrogenic medium consisted of DMEM with the stated concentration of glucose and the following supplements: 100 nM dexamethasone, 10 ng/ml Transforming Growth Factor)β, 1 mM sodium pyruvate, 5 μg/ml ascorbic acid-2-phosphate, and 40 μg/ml proline. A 1:99 dilution of “ITS+” supplied 6.25 μg/ml bovine insulin, 6.25 μg/ml transferrin, […], 5.33 μg/ml linoleic acid, and 1.25 mg/ml bovine serum albumin. Final concentrations of 100 U/ml penicillin, 100 μg/ml streptomycin, and 250 ng/ml amphotericin B were supplied by a 1:99 dilution of a concentrated antibiotic solution. The cells and medium were placed into a 15 ml polypropylene conical-bottom centrifuge tube, and gently centrifuged (500× g for 5 min.), after which the tubes with loosened caps were placed in a humidified 5% CO2 incubator at 37 C. […]

In assay [2] the test system is Human bone marrow-derived mesenchymal stem cells. Description: Chondrogenic differentiation of MSC pellets with TGF-β1 or TGF-β3 (toluidine blue, collagen and COMP immunostaining). It counts as cell-based. The note with it: 10 ng/ml. The protocol:
Human bone marrow-derived mesenchymal stem cells were cultured under standard conditions in the presence of 10% FBS until confluent. The cells were trypsinized, washed twice with chondrogenic medium, and resuspended at a density of 200,000 cells/ml in 15 ml polypropylene tubes in chondrogenic medium containing either 10 ng/ml TGF-01, TGF-β3 or neither of these. […] Frozen sections (8 μn) were stained with Toluidine blue. They were also stained for the following using standard immunocytochemistry protocols: collagen type 11, collagen type 1, and cartilage oligomeric matrix protein (COMP).

Where [3] appears, read: no TGF-β3, 50 nM thyroxine, 20 mM β-glycerol phosphate, 10^−9 M dexamethasone, compared to standard chondrogenic medium for 28 days.

The record followed here is patent US20030026786A1, “CHONDROGENIC DIFFERENTIATION OF HUMAN MESENCHYMAL STEM CELLS” (priority 1999, published 2003).

“Also recorded” adds a separate entry of the source.

Regarding `N[C@@H](Cc1cc(I)c(Oc2ccc(O)c(I)c2)c(I)c1)C(=O)O` [T3], in the assay with hMSCs in pellet culture, the inducing hypertrophy result was “effective”.
As to `O=C(CO)[C@@H](O)[C@H](O)[C@H](O)CO` [fructose], the “improvement to in vitro chondrogenic differentiation” value in assay [1] is on record as “same improvement”.
In the case of `N[C@@H](Cc1cc(I)c(Oc2cc(I)c(O)c(I)c2)c(I)c1)C(=O)O` [thyroxine], the hypertrophy entry with hMSCs in pellet culture (no TGF-β3, 50 nM thyroxine combined with 20 mM β-glycerol phosphate and 10^−9 M dexamethasone, from day 14 to day 28) is recorded as “hypertrophic differentiation of hMSCs was the predominant pathway; also recorded: more prominent”. Further, in the assay on hMSCs in pellet culture (setting [3]), the “deposition of type X collagen (antibody X53)” value is “irregular but pronounced increase”; the “staining for type II and type IX collagens” value was “intense staining”. Moreover, the inducing hypertrophy entry in the assay with hMSCs in pellet culture is “effective”. Also, the hypertrophic effect entry with hMSCs in pellet culture (withdrawing TGF-β3 and adding 50 nM thyroxine after two weeks of chondrogenic differentiation, two additional weeks of culture) was “pronounced hypertrophic effect”.
As to “TGF-β1: member of the transforming growth factor-β superfamily, known promoter of cartilage formation”, the “type II collagen expression” value is “localized expression of type II collagen” in assay [2] (14 days) and “no expression of type II collagen” in assay [2] (after 8 days in pellet culture). Further, the “type II collagen staining” value in assay [2] (21 days in culture) was “staining throughout the pellet except for the perimeter”.

B1: TGF-β3: transforming growth factor beta-3, chondroinductive agent (protein, UniProt P10600 301-412, looked up)
Transforming growth factor …: ALDTNYCFRNLEENCCVRPLYIDFRQDLGWKWVHEPKGYYANFCSGPCPYLRSADTTHSTVLGLYNTLNPEASASPCCVPQDLEPLTILYYVGRTPKVEQLSNMVVKSCKCS
Regarding B1, in assay [2] (14 days), the “cell morphology (hypertrophic cells)” value was “A large proportion of the cells were hypertrophic”; the pellet size result is reported as “larger in size”; the “type II collagen expression” value was “expression of type II collagen throughout, except for a central area”. Besides, in assay [2] (21 days in culture), the COMP staining entry is “reduced pericellular staining and increased interterritorial staining”; the “type II collagen staining” value is recorded as “very strong staining”. For the same molecule, the “type II collagen expression” value in assay [2] (after 8 days in pellet culture) is recorded as “some cells-ex fessed type II collagen”. In addition, the “effect on chondrogenic differentiation of human MSCs in vitro” value in assay [2] (up to 21 days) is given as “dramatic effect; also recorded: more pronounced”.
